Reference: patent US9249129B2, “Morpholino substituted urea derivatives as mTOR inhibitors” (CELLZOME LIMITED, priority 2010, dated 2016)

Tests used:
Assay in all cases: kinobeads assay with mass spectrometry detection of kinases (kinase selectivity profile)
Format in all cases: binding
kinases (kinome) [1] = molecular target: T1, kinases (kinome) (Homo sapiens, UniProt P06241); settings: FYN (TK), IPI00219012
T1 construct: determined in kinobeads assays with mass spectrometry detection of kinases as described previously; endogenous in cells; host or cells: cell lysate
Text: (§1) The protein kinase complement of the human genome (the kinome) was described previously (Manning et al., 2002. Science 298(5600):1912-1934). Sequence accession numbers are defined by the International Protein Index (IPI) (Kersey et al., 2004. Proteomics 4(7):1985-1988).

kinases (kinome) [2] = molecular target: T2, kinases (kinome) (Homo sapiens, UniProt Q96L34); settings: MARK4 (CAMK), IPI00064797
T2 construct: determined in kinobeads assays with mass spectrometry detection of kinases as described previously; endogenous in cells; host or cells: cell lysate
T2 sequence (Q96L34 1-752): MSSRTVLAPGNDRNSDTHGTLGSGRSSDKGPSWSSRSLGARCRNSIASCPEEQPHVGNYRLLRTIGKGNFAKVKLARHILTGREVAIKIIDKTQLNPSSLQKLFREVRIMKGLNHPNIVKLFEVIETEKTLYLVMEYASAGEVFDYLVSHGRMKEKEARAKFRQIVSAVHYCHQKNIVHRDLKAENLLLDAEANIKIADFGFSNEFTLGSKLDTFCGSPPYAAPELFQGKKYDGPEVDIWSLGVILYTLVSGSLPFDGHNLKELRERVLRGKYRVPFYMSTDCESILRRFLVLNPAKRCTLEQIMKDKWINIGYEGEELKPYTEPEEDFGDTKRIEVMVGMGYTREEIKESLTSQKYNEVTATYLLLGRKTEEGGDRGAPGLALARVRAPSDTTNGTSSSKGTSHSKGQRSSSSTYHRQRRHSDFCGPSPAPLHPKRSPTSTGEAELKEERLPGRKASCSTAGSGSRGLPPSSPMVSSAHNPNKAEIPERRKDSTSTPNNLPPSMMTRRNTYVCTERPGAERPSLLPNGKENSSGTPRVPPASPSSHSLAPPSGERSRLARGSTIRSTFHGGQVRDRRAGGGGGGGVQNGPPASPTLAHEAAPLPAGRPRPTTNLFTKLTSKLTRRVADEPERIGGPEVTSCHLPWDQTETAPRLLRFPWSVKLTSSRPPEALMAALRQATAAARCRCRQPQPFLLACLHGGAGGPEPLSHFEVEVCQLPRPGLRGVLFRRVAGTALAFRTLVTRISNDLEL
Text: as §1

kinases (kinome) [3] = molecular target: T3, kinases (kinome) (Homo sapiens, UniProt P49840); settings: GSK3A (CMGC), IPI00292228
T3 construct: determined in kinobeads assays with mass spectrometry detection of kinases as described previously; endogenous in cells; host or cells: cell lysate
Text: as §1

kinases (kinome) [4] = molecular target: T4, kinases (kinome) (Homo sapiens, UniProt P43405); settings: SYK (TK), IPI00018597
T4 construct: determined in kinobeads assays with mass spectrometry detection of kinases as described previously; endogenous in cells; host or cells: cell lysate
Text: as §1

kinases (kinome) [5] = molecular target: T5, kinases (kinome) (Homo sapiens, UniProt P07947); settings: YES (TK), IPI00013981
T5 construct: determined in kinobeads assays with mass spectrometry detection of kinases as described previously; endogenous in cells; host or cells: cell lysate
Text: as §1

kinases (kinome) [6] = molecular target: T6, kinases (kinome) (Homo sapiens, UniProt Q86YV5); settings: SgK223 (Other), IPI00739386
T6 construct: determined in kinobeads assays with mass spectrometry detection of kinases as described previously; endogenous in cells; host or cells: cell lysate
T6 sequence (Q86YV5 1-1406): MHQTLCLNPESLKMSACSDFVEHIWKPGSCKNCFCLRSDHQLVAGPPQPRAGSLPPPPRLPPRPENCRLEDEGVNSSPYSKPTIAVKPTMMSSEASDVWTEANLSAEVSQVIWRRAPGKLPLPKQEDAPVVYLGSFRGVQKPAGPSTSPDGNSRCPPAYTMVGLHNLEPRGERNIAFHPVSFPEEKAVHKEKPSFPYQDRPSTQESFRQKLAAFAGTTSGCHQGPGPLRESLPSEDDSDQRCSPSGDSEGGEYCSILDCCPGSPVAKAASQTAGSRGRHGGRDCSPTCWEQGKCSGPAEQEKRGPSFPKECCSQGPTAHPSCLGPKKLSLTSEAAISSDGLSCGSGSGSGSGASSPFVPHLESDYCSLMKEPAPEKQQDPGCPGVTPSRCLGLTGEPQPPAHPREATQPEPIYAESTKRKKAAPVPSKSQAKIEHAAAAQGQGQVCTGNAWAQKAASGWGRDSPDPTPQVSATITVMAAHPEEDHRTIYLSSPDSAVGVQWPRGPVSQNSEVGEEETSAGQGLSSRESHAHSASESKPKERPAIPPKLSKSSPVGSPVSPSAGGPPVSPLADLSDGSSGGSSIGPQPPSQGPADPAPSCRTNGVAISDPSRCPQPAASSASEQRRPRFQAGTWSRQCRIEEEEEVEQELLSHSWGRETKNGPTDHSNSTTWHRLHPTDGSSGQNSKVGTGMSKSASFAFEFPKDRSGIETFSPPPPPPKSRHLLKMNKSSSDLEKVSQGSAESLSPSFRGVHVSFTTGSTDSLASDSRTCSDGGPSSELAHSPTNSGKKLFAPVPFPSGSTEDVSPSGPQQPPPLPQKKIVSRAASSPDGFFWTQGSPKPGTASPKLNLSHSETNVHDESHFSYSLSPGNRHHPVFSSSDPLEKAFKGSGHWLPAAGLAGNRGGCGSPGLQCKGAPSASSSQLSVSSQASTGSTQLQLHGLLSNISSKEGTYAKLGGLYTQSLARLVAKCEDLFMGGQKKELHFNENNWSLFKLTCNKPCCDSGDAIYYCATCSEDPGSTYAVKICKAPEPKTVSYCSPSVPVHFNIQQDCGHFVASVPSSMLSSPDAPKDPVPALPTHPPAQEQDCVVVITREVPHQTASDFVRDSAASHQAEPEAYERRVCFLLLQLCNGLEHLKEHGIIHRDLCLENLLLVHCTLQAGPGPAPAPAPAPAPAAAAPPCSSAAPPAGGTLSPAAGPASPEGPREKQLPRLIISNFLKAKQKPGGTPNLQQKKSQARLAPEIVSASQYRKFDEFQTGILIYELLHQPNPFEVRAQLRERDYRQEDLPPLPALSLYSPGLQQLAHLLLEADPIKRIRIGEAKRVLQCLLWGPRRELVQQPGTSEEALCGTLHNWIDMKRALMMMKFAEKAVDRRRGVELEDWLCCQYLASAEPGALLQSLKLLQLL
Text: as §1

kinases (kinome) [7] = molecular target: T7, kinases (kinome) (Homo sapiens, UniProt P06239); settings: LCK (TK), IPI00515097
T7 construct: determined in kinobeads assays with mass spectrometry detection of kinases as described previously; endogenous in cells; host or cells: cell lysate
Text: as §1

T1 sequence (P06241 whole entry): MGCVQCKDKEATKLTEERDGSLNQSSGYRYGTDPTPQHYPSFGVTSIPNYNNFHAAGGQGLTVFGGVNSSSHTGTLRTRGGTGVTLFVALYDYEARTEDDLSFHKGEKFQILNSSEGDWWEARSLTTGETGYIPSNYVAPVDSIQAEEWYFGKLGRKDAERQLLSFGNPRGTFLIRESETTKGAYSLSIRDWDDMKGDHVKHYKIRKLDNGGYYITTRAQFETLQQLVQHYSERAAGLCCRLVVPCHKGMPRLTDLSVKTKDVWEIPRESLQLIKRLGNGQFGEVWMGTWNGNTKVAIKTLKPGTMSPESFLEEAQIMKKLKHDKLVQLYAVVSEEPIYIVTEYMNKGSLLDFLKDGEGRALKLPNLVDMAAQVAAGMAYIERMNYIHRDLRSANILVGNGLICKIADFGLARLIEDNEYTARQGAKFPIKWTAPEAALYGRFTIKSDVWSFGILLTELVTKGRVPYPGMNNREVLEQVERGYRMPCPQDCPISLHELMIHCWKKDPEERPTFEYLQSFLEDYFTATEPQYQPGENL
T5 sequence (P07947 whole entry): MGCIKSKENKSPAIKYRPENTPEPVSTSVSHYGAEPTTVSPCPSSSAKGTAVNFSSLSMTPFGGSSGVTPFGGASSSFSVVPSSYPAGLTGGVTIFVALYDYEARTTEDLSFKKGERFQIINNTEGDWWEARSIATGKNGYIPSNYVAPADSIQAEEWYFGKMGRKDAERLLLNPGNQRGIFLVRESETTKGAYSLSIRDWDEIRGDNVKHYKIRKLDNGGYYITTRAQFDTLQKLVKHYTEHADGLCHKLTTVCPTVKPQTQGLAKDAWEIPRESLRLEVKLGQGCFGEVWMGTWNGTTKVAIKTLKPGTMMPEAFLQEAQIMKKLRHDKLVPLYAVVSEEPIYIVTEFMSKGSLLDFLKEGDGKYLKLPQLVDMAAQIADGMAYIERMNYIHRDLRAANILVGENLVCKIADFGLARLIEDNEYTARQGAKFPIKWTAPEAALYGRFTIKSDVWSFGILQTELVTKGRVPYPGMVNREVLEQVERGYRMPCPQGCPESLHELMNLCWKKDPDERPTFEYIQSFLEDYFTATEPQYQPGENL
T7 sequence (P06239 whole entry): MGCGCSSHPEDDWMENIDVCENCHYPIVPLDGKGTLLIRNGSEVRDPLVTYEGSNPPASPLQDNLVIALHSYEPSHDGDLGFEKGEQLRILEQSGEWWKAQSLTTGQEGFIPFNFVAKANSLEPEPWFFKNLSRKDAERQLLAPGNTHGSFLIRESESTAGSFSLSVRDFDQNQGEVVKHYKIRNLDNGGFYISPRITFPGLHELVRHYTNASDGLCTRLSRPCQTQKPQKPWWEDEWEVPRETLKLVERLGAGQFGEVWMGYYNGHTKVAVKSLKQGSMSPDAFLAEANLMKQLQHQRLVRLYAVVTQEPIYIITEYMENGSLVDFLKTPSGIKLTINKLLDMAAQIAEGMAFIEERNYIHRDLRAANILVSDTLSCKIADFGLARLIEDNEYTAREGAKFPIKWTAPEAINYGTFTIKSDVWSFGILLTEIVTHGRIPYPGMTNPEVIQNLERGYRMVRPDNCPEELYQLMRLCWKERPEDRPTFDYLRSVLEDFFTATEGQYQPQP
T3 sequence (P49840 whole entry): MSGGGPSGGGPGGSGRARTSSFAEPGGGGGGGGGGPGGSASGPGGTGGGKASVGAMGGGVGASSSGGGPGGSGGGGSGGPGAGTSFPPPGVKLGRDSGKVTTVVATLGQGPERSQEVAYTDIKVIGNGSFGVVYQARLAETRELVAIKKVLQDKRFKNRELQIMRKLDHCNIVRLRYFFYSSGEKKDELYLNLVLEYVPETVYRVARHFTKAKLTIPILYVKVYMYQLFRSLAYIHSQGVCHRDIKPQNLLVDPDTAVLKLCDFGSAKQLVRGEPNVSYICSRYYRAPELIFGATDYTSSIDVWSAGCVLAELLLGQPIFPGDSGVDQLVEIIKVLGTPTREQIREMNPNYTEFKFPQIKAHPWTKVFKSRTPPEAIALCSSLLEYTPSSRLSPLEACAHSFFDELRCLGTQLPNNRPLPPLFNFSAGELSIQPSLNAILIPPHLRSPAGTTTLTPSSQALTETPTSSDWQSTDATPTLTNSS

IC50 (kinases (kinome) [1]) [µM] | IC50 (kinases (kinome) [2]) [µM] | IC50 (kinases (kinome) [3]) [µM] | IC50 (kinases (kinome) [4]) [µM] | IC50 (kinases (kinome) [5]) [µM] | IC50 (kinases (kinome) [6]) [µM] | IC50 (kinases (kinome) [7]) [µM] | SMILES
> 10 | > 10 | > 10 | > 10 | > 10 | > 10 | > 10 | C[C@H]1COCCN1c1cc(-c2ccccc2S(C)(=O)=O)nc(-c2ccc(NC(=O)NC3CC3)cc2)n1 [Example 6, (S)-1-cyclopropyl-3-(4-(4-(3-methylmorpholino)-6-(2-(methylsulfonyl)phenyl)pyrimidin-2-yl)phenyl)urea]
> 10 | > 10 | > 10 | > 10 | > 10 | > 10 | – | CCNC(=O)Nc1ccc(-c2cc(-c3ccccc3C#N)nc(N3CCOC[C@@H]3C)n2)cc1 [Example 8, (S)-1-(4-(6-(2-cyanophenyl)-2-(3-methylmorpholino)pyrimidin-4-yl)phenyl)-3-ethylurea]
> 10 | > 10 | > 10 | > 10 | > 10 | – | > 10 | C[C@H]1COCCN1c1nc(-c2ccc(NC(=O)NC3CC3)cc2)cc(-c2ccccc2S(C)(=O)=O)n1 [Example 4, (S)-1-cyclopropyl-3-(4-(2-(3-methylmorpholino)-6-(2-(methylsulfonyl)phenyl)pyrimidin-4-yl)phenyl)urea]
> 10 | > 10 | > 10 | > 10 | > 10 | > 10 | > 10 | C[C@H]1COCCN1c1nc(-c2ccc(NC(=O)NC3CC3)cc2)cc(-c2cccnc2S(C)(=O)=O)n1 [Example 46, (S)-1-cyclopropyl-3-(4-(2-(3-methylmorpholino)-6-(2-(methylsulfonyl)pyridin-3-yl)pyrimidin-4-yl)phenyl)urea]
> 10 | > 10 | > 10 | > 10 | > 10 | > 10 | > 10 | C[C@H]1COCCN1c1nc(-c2ccc(NC(=O)N[C@H]3CCC[C@@H]3O)cc2)cc(-c2cc(F)ccc2S(C)(=O)=O)n1 [Example 76, 1-(4-(6-(5-fluoro-2-(methylsulfonyl)phenyl)-2-((S)-3-methylmorpholino)pyrimidin-4-yl)phenyl)-3-((1S,2S)-2-hydroxycyclopentyl)urea]
> 10 | > 10 | > 10 | > 10 | > 10 | > 10 | > 10 | C[C@H]1COCCN1c1cc(-c2ccccn2)nc(-c2ccc(NC(=O)NCCO)cc2)n1 [Example 43, (S)-1-(2-hydroxyethyl)-3-(4-(4-(3-methylmorpholino)-6-(pyridin-2-yl)pyrimidin-2-yl)phenyl)urea]
> 10 | > 10 | > 10 | > 10 | > 10 | > 10 | > 10 | C[C@H]1COCCN1c1nc(-c2ccc(NC(=O)NC3CC3)cc2)cc(-c2cc(F)ccc2S(C)(=O)=O)n1 [Example 40, (S)-1-cyclopropyl-3-(4-(6-(5-fluoro-2-(methylsulfonyl)phenyl)-2-(3-methylmorpholino)pyrimidin-4-yl)phenyl)urea]
